Test results: patent publication US5496849A, “Sulfonic acid derivative and its pharmaceutical application” (Toray Industries, Inc., priority 1992, dated 1996)

Key:
[1] = tested on: platelet aggregation induced by U-46619 in human platelet-rich plasma (PRP); assay: Platelet aggregation inhibitory action (U-46619-induced, human platelet-rich plasma); format: cell-based; details: compounds added 1 minute before U-46619, turbidity
Protocol: Human whole blood drawn from the median cubital vein was centrifuged for 10 minutes at 800 rpm, and the upper portion was collected as platelet-rich plasma (PRP). […] The size of the aggregates were measured with a platelet aggregate measuring instrument (Hematracer 1, Nikko Bioscience) as the change in turbidity. The compounds were added 1 minute before addition of U-46619, and the concentration which inhibits aggregation by 50% was calculated as the IC50 value.

[2] = tested on: vasoconstriction of rat thoracic aorta induced by U-46619; assay: Vasoconstriction inhibitory action (U-46619-induced constriction of thoracic aorta spiral specimens); parameters: species or system long Evans rats; details: 10 min, pH 7.4, minimum concentration at which inhibition rate was 50% or more, 10 ng/ml U-46619, drug applied 10 minutes, 37° C., read-out: Vasoconstriction Inhibitory Action MIC
Protocol: Male and female long Evans rats having body weights of 150-200 g were used in this example. After sacrificing the animals by decapitation, the thoracic aorta was removed, and the outer membrane was peeled off to obtain I2 spiral specimens roughly 2 cm in length. Blood vessel specimens were warmed to 37° C. and preserved in a Magnus tube containing 10 ml of a nutrient solution aerated with 95% oxygen+5% carbon dioxide gas. The nutrient solution contained 118.3 mmol of NaCl, 4.7 mmol of KCl, […] of CaCl, 1.2 mmol of MgSO4, 1.2 mmol of KH2 PO4, 25 mmol of NaCHO3, 11.1 mmol of D-glucose, 0.03 mmol of EDTA along with 1 μg/ml each of atropin, phentolamine, mepiramine, cyproheptadine, propranolol and indometacin, and was adjusted to a pH of 7.4. Vasoconstriction was measured using an isometric transducer (Harward UF-1 Transducer and Sekonic SS-250F Graph recorder). An equilibration time of 3 hours was provided after the blood vessels were installed on the Magnus device, and fresh nutrient solution was replaced every 30 minutes during that time. […] of U-46619, having TXA2 action (to reach roughly 75% of maximum constriction), was applied for 30 minutes to constrict the vessels. The maximum stable constriction during this time was taken to be the control constriction (C1). Next, the blood vessels were washed several times with nutrient solution to remove the drug. After allowing a recovery period of 30 minutes, the test drugs were applied at various concentrations for 10 minutes followed by again constricting the vessels by applying 10 ng/ml of U-46619 for 30 minutes. The maximum stable constriction during this time was taken to be the constriction of the test drugs (C2). The inhibition rates of vasoconstriction induced by the drugs and U-46619 were determined according to the following formula, and the minimum concentration at which the inhibition rate was 50% or more was determined as the minimum inhibitory concentration (MIC).
((C1-C2)/C1)×100=Inhibition rate (%)

[3] = target: T1, Thromboxane A2 Receptor (Oryctolagus cuniculus, UniProt Q6WQI8); assay: Receptor binding experiment: Thromboxane A2 Receptor Binding Test ([3H]SQ29548, washed platelets); parameters: species or system New Zealand White rabbits; details: rabbit washed platelets; [3H]SQ29548 3 nM; 60 minutes at 25° C.; read-out: Binding Inhibitory Action IC50 (converted)
T1 sequence (Q6WQI8 1-233): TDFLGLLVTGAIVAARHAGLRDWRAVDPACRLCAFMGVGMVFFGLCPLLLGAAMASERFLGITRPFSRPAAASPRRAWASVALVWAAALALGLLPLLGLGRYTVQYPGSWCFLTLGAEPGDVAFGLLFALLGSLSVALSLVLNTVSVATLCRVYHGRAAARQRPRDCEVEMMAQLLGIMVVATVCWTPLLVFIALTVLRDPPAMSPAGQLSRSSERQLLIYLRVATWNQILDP
Protocol: Whole blood from New Zealand White rabbits was collected into a container containing ACD solution (1.175 g of sodium citrate, 0.685 g of citric acid, and 1 g of dextrose dissolved in 50 ml of distilled water) followed by centrifuging at room temperature for 10 minutes at 180 ×g to obtain platelet-rich plasma. Moreover, this platelet-rich plasma was further centrifuged at room temperature and 2800 ×g to result in sedimentation of the platelets. The platelets were resuspended in 50 mM Tris hydrochloric acid buffer solution (pH 7.2, containing […]) and again centrifuged at 4° C. for 15 minutes at 2800 ×g. This procedure was repeated twice to prepare the washed platelets, and adjusted to a final concentration of 10 mg/ml (wet weight). Tritium-labelled SQ29548 ([3H]SQ29548) was used for the TXA2 ligand. In an antagonism experiment, 20 μl of [3H]SQ29548 at a final concentration of 3 nM were added to 500 μl of a 10 mg/ml platelet suspension, together with adding 2.6 μl of the test drug dissolved in a suitable buffer. After incubating for 60 minutes at 25° C., the mixture was filtered over a glass filter using the Celherbster method, the filter was washed with 50 mM Tris hydrochloric acid buffer solution (3 ×4 ml), and radioactivity was measured with a scintillation counter to determine the amount of [3H]SQ29548 bound to the platelets. In addition, in a saturation test, 20 μl of [3H]SQ29548 were added to a final concentration of 0.1-50 nM followed by the addition of 2.6 μl of BM13505 at a final concentration of 1 μM in order to examine non-specific binding and carry out a binding experiment. The concentration of the test drug which inhibited binding of [3H]SQ29548 by 50% was determined as the IC50 value.

## O=C(O)COc1cccc2c1O[C@H]1C[C@@H](O)[C@H](NS(=O)(=O)c3ccc(Cl)cc3)[C@@H]21 (racemic) [(55), (1RS, 2RS, 3aSR, 8bRS)-1-(p-chlorobenzenesulfonamido)-2-hydroxy-2,3,3a,8b-tetrahydro-1H-cyclopenta[b]benzofuran-5-yloxy acetic acid]
[1]
  IC50: 17 nM
[2]
  minimal effective concentration: 0.1 µg/mL
[3]
  IC50: 3.18 nM

## O=C(O)COc1cccc2c1O[C@H]1C[C@@H](O)[C@H](NS(=O)(=O)c3cccc(Cl)c3)[C@@H]21 (racemic) [(57), (1RS, 2RS, 3aSR, 8bRS)-1-(m-chlorobenzenesulfonamido)-2-hydroxy-2,3,3a,8b-tetrahydro-1H-cyclopenta[b]benzofuran-5-yloxyacetic acid]
[1]
  IC50: 41 nM
[2]
  minimal effective concentration: 0.01 µg/mL
[3]
  IC50: 22.7 nM

## O=C(O)COc1cccc2c1O[C@H]1C[C@@H](O)[C@H](NS(=O)(=O)c3ccc(Br)cc3)[C@@H]21 (racemic) [(61), (1RS, 2RS, 3aSR, 8bRS)-1-(p-bromobenzenesulfonamido)-2-hydroxy-2,3,3a,8b-tetrahydro-1H-cyclopenta[b]benzofuran-5-yloxyacetic acid]
[1]
  IC50: 44 nM
[2]
  minimal effective concentration: 0.03 µg/mL
[3]
  IC50: 2.06 nM

## O=C(O)COc1cccc2c1O[C@H]1C[C@@H](O)[C@H](NS(=O)(=O)c3ccc(I)cc3)[C@@H]21 (racemic) [(63), (1RS, 2RS, 3aSR, 8bRS)-1-(p-iodobenzenesulfonamido)-2-hydroxy-2,3,3a,8b-tetrahydro-1H-cyclopenta[b]benzofuran-5-yloxyacetic acid]
[1]
  IC50: 58 nM
[2]
  minimal effective concentration: 0.01 µg/mL
[3]
  IC50: 22.6 nM

## O=C(O)COc1cccc2c1O[C@H]1C[C@@H](O)[C@H](NS(=O)(=O)c3ccc([N+](=O)[O-])cc3)[C@@H]21 (racemic) [(68), (1RS, 2RS, 3aSR, 8bRS)-1-(p-nitrobenzenesulfonamido)-2-hydroxy-2,3,3a,8b-tetrahydro-1H-cyclopenta[b]benzofuran-5-yloxyacetic acid]
[1]
  IC50: 140 nM
[2]
  minimal effective concentration: 0.1 µg/mL
[3]
  IC50: 910 nM

## O=C(O)COc1cccc2c1O[C@H]1C[C@@H](O)[C@H](NS(=O)(=O)c3ccc(F)cc3F)[C@@H]21 (racemic) [(70), (1RS, 2RS, 3aSR, 8bRS)-1-(2,4-difluorobenzenesulfonamido)-2-hydroxy-2,3,3a,8b-tetrahydro-1H-cyclopenta[b]benzofuran-5-yloxyacetic acid]
[1]
  IC50: 29 nM
[2]
  minimal effective concentration: 0.03 µg/mL
[3]
  IC50: 49.8 nM

## O=C(O)COc1cccc2c1O[C@H]1C[C@@H](O)[C@H](NS(=O)(=O)c3ccc(Cl)c(Cl)c3)[C@@H]21 (racemic) [(72), (1RS, 2RS, 3aSR, 8bRS)-1-(3,4-dichlorobenzenesulfonamido)-2-hydroxy-2,3,3a,8b-tetrahydro-1H-cyclopenta[b]benzofuran-5-yloxyacetic acid]
[1]
  IC50: 120 nM
[2]
  minimal effective concentration: 0.03 µg/mL
[3]
  IC50: 25.3 nM

## O=C(O)COc1cccc2c1O[C@H]1CC[C@H](NS(=O)(=O)c3ccccc3)[C@@H]21 (racemic) [(90), (1SR, 3aSR, 8bRS)-1-benzenesulfonamido-2,3,3a,8b-tetrahydro-1H-cyclopenta[b]benzofuran-5-yloxyacetic acid]
[1]
  IC50: 99 nM
[2]
  minimal effective concentration: 0.003 µg/mL
[3]
  IC50: 8.47 nM

## CO[C@@H]1C[C@@H]2Oc3c(OCC(=O)O)cccc3[C@@H]2[C@H]1NS(=O)(=O)c1ccccc1 (racemic) [(92), (1RS, 2RS, 3aSR, 8bRS)-1-benzenesulfonamido-2-methoxy-2,3,3a,8b-tetrahydro-1H-cyclopenta[b]benzofuran-5-yloxyacetic acid]
[1]
  IC50: 100 nM
[2]
  minimal effective concentration: 0.1 µg/mL
[3]
  IC50: 57.2 nM

## O=C(O)COc1cccc2c1O[C@H]1CC[C@@H](NS(=O)(=O)c3ccccc3)[C@@H]21 (racemic) [(94), (1RS, 3aSR, 8bRS)-1-benzenesulfonamido-2,3,3a,8b-tetrahydro-1H-cyclopenta[b]benzofuran-5-yloxyacetic acid]
[1]
  IC50: 68 nM
[2]
  minimal effective concentration: 0.1 µg/mL
[3]
  IC50: 16.7 nM

## CCOC(=O)COc1cccc2c1O[C@H]1C[C@@H](O)[C@H](NS(=O)(=O)c3ccccc3)[C@@H]21 (racemic) [(102), (1RS, 2RS, 3aSR, 8bRS)-1-benzenesulfonamido-2-hydroxy2,3,3a,8b-tetrahydro-1H-cyclopenta[b]benzofuran-5-yloxyacetic acid ethyl ester]
[1]
  IC50: 220 nM
[2]
  minimal effective concentration: 0.03 µg/mL
[3]
  IC50: 415 nM

## O=C(O)COc1cccc2c1O[C@H]1CC[C@H](OS(=O)(=O)c3ccccc3)[C@@H]21 (racemic) [(121), (1SR, 3aSR, 8bSR)-1-(phenylsulfonyloxy)-2,3,3a,8b-tetrahydro-1H-cyclopenta[b]benzofuran-5-yloxyacetic acid]
[1]
  IC50: 130 nM
[2]
  minimal effective concentration: 0.003 µg/mL
[3]
  IC50: 1.28 nM

## Cc1ccc(S(=O)(=O)N[C@@H]2[C@H]3c4cccc(OCC(=O)O)c4O[C@H]3C[C@H]2O)cc1 (relative stereo) [(49), (1RS, 2RS, 3aSR, 8bRS)-1-(p-toluenesulfonamido)-2-hydroxy-2,3,3a,8b-tetrahydro-1H-cyclopenta[b]benzofuran-5-yloxyacetatic acid]
[1]
  IC50: 22 nM
[2]
  minimal effective concentration: 0.01 µg/mL
[3]
  IC50: 8.82 nM

## O=C(O)COc1cccc2c1O[C@H]1C[C@@H](O)[C@H](NS(=O)(=O)c3ccccc3Cl)[C@@H]21 (relative stereo) [(59), (1RS, 2RS, 3aSR, 8bRS)-1-(o-chlorobenzenesulfonamido)-2-hydroxy-2,3,3a,8b-tetrahydro-1-cyclopenta[b]benzofuran-5-yloxyacetic acid]
[1]
  IC50: 69 nM
[2]
  minimal effective concentration: 0.1 µg/mL
[3]
  IC50: 22.7 nM

## O=C(O)/C=C/c1cccc2c1O[C@H]1C[C@@H](O)[C@H](NS(=O)(=O)c3ccccc3)[C@@H]21 (relative stereo) [(88), (1RS, 2RS, 3aSR, 8bRS)-1-benzenesulfonamido-2-hydroxy-2,3,3a,8b-tetrahydro-1H-cyclopenta[b]benzofuran-5-(E)-acrylic acid]
[1]
  IC50: 450 nM
[2]
  minimal effective concentration: 0.3 µg/mL
[3]
  IC50: 648 nM

## O=C(O)COc1ccc(CCNS(=O)(=O)c2ccccc2)cc1 [Control, 4-(2-(benzenesulfonamido)ethyl) phenoxyacetic acid, reference compound]
[1]
  IC50: 5000 nM
[2]
  minimal effective concentration: 0.3 µg/mL
[3]
  IC50: 4170 nM
